Test results as given in publication PMC11597817, “Modulation of Multispecific Transporters by Uncaria tomentosa Extract and Its Major Phytoconstituents” (Pharmaceutics, 2024).
Where two headings read alike, the source gives them in different places.

Target: T1, BCRP (Homo sapiens, UniProt Q9UNQ0)
T1 construct: The cDNA encoding respective transporters were synthetized and cloned by GenScript; host or cells: HEK293 (lentiviral transduction), membrane vesicles
T1 sequence (Q9UNQ0 1-655): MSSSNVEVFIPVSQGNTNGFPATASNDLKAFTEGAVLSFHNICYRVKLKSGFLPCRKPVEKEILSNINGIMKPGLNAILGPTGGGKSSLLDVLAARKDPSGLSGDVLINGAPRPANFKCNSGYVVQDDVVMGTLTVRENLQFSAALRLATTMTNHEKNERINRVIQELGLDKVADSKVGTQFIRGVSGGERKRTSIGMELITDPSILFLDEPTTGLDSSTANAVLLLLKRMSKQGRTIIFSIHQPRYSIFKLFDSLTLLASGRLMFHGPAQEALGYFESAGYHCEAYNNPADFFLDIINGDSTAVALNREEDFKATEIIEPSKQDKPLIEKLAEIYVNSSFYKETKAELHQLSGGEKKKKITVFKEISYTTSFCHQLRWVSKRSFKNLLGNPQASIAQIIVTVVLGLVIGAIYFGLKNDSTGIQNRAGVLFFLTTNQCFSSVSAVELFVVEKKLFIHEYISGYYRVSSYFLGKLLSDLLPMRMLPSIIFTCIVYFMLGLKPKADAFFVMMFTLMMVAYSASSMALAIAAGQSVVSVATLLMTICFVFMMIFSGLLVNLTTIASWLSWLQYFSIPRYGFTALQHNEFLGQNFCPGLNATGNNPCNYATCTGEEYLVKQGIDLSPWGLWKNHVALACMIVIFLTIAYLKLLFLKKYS
Test: Vesicular transport inhibition assay, BCRP membrane vesicles
Format: biochemical
Settings: for Igut/IC50 ratio: BCRP, Igut = dose/250 mL, 500 mg dose of UT extract, ICH M12 cut-off 10; for IC50: oxindole alkaloids, substrate E3S, read-out: IC50 (95% CI of IC50)
Source text: The human embryonic kidney 293 (HEK293) cell line was purchased from Invitrogen/ThermoFisher (Waltham, MA, USA). Madin–Darby canine kidney II (MDCKII) wild type cells were obtained from the European Collection of Authenticated Cell Cultures (ECACC catalog no. 00062107). HEK293 cells overexpressing the human uptake OATP1B1 (NCBI Reference Sequence: NM_006446.4), OATP1B3 (NM_019844), OATP2B1 (NM_007256), OATP1A2 (NM_134431), OAT1-3 (BC033682.1; NM_006672.3; BC022387), OCT1-3 (BC126364.1; NM_003058; NM_021977), OCTN1 (NM_003059.3), NTCP (NM_003049.3), MATE1 (NM_018242.3), MATE2K (NM_001099646.2), ENT4 (NM_001040661.1), SGLT2 (AJ133127.1), ASCT1/2 (NM_003038.5; NM_005628.3), LAT1/2 (NM_003486.6; NM_012244.4), and THTR1/2 (NM_006996; NM_025243) and mock and human efflux BCRP (NM_004827.2), BSEP (NM_003742.2), MDR1 (NM_000927.4), and MRP1-5 (NM_004996; NM_000392.4; BC137347.1; NM_005845.4; NM_005688.2) transporters as well as MDCKII overexpressing human ENT1/2 (NM_001078177; NM_001532.2) and URAT1 (BC053348) transporters were created by lentiviral transduction. The cDNA encoding respective transporters were synthetized and cloned by GenScript (Piscataway, NJ, USA). The production of lentivirus supernatants, the transduction of the cells, cloning, functional characterization, and validation were performed by Charles River Laboratories Hungary Kft. (Budapest, Hungary).
Membrane vesicles were prepared from ABC transporter-overexpressing HEK293 cells by Charles River Laboratories Hungary Kft. as described previously in detail. Vesicles were frozen in liquid nitrogen and stored at −80 °C.
Vesicular transport inhibition assays were performed using a rapid filtration technique. In brief, the appropriate amount of the protein of each membrane vesicle was mixed with either the extract or isopteropodine, mitraphylline, or uncarine D at one concentration or with their half dilution series from 150 µg/mL or from 100 µM, the suitable transporter substrate, and the assay buffer on ice. Reaction mixtures were preincubated for 15 min at 37 °C with shaking at 250 rpm. Following preincubation, 4 mM Mg-ATP or AMP was added and incubated according to Table S3. Vesicular transport was terminated by adding an ice-cold washing buffer, and the reaction mix was transferred to a MSFBN6B10 filter plate (Merck) for filtration. The filter plates were then dried at 40 °C for 4 h, and radiolabeled substrates retained in the vesicles were detected by liquid scintillation counting as described above. For fluorescent substrates, accumulation was measured with a Clariostar^plus microplate reader (BMG Labtech GmbH, Ortenberg, Germany).
The transporter-mediated uptake and ATP-dependent transport were determined by subtracting the activity of the control cell/transporter abundant-membrane in the presence of AMP from the activity of the transporter-overexpressing cell/transporter-abundant membrane in the presence of ATP. The relative transporter-specific accumulation was expressed as the percent of DMSO activity. The results were presented as the mean ± SEM from 3 parallels. More than a 20% reduction in transport activity was considered as inhibition. For the IC50 determination, dose–response curves were fitted using a 4-parameter nonlinear model in GraphPad Prism version 9.0. Confidence intervals (CIs) of 95% were also determined.
Table S3 – Vesicular transport inhibition assay details.
These parameters were set during previous validations. TC: taurocholic acid, E3S: estrone 3 -sulfate, […]

SMILES | Igut/IC50 ratio | Igut/IC50 ratio (listed as Isopteropodine) | IC50 (listed as Isopteropodine) [µM] | IC50 [µM]
COC(=O)C1=CO[C@@H](C)[C@H]2CN3CC[C@]4(C(=O)Nc5ccccc54)[C@@H]3C[C@H]12 [mitraphylline] | < 10 |  |  | 
COC(=O)C1=CO[C@@H](C)[C@@H]2CN3CC[C@@]4(C(=O)Nc5ccccc54)[C@@H]3C[C@H]12 [isopteropodine] | < 10 | 0.42 | 54.6 | 54.6
